Source: ChEMBL document CHEMBL3137667, “[Drug-induced liver injury; fourteenth updated edition of the bibliographic database of liver injuries and related drugs]” (Gastroenterol Clin Biol, 2004)

Key:
[1] = Highest frequency of moderate liver toxicity observed during clinical trials, expressed as a percentage. [column '% BIOL' in source]; conditions: human
[2] = Highest frequency of acute liver toxicity observed during clinical trials, expressed as a percentage. [column '% AIGUE' in source]; conditions: human
[3] = human, serum
[4] = human, serum; remark: listed apart in the source
[5] = human
[6] = human; remark: listed apart in the source
[7] = human; remark: listed apart in the source
[8] = human, serum, 4383 h
[9] = human; remark: listed apart in the source
[10] = human; remark: listed apart in the source
[11] = human; remark: listed apart in the source
[12] = human; remark: listed apart in the source
[13] = human; remark: listed apart in the source
[14] = human; remark: listed apart in the source
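Wherever Hepatotoxicity (association with vascular disease) is given: count of indexed literature references reporting vascular liver injury in humans, e.g. peliosis hepatitis, hepatic veno-occlusive disease or Budd-Chiari syndrome.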
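Wherever Hepatotoxicity (benign tumour) is given: value is a count of indexed literature references citing a benign tumour confirmed by histopathology.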
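Wherever Hepatotoxicity (choleostasis) is given: human cholestatic liver injury, shown by histopathology or by peak ALT or AST elevation over alkaline phosphatase ratio below 2, value counts indexed literature reports.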
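Wherever Hepatotoxicity (chronic liver disease) is given: chronic liver injury confirmed by histopathology or persistently raised serum aminotransferase activity beyond 6 months, value given as the count of indexed literature references.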
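Wherever Hepatotoxicity (cirrhosis) is given: value is a count of indexed literature references reporting cirrhosis confirmed by histopathology.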
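Wherever Hepatotoxicity (cytolytic) is given: human cytolytic liver injury, shown by histopathology or by a ratio above 5 of peak ALT or AST elevation to alkaline phosphatase elevation, value counts indexed references.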
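Wherever Hepatotoxicity (granulomatous hepatitis) is given: value is a count of indexed literature references reporting granulomatous liver disease confirmed by histopathology.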
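Wherever Hepatotoxicity (malignant tumour) is given: malignant tumour confirmed by histopathology, value gives the count of indexed literature references reporting it.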
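Wherever Hepatotoxicity (severe hepatitis) is given: human clinical data: severe hepatitis, meaning potentially life-threatening liver failure or clinically observed cases, the value counts how many indexed literature references report it.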
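Wherever Hepatotoxicity (steatosis) is given: steatosis confirmed by histopathology, value is the count of indexed references.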

CC(C)CN(C[C@@H](O)[C@H](Cc1ccccc1)NC(=O)O[C@H]1CCOC1)S(=O)(=O)c1ccc(N)cc1
Hepatotoxicity (moderate) [1]: 0% | Hepatotoxicity (acute) [2]: 10.7% | Hepatotoxicity (moderate) [3]: 0 | Hepatotoxicity (acute) [4]: 3 | Hepatotoxicity (cytolytic) [5]: 3 | Hepatotoxicity (choleostasis) [6]: 0 | Hepatotoxicity (severe hepatitis) [7]: 0 | Hepatotoxicity (chronic liver disease) [8]: 0 | Hepatotoxicity (cirrhosis) [9]: 0 | Hepatotoxicity (granulomatous hepatitis) [10]: 0 | Hepatotoxicity (association with vascular disease) [11]: 0 | Hepatotoxicity (steatosis) [12]: 0 | Hepatotoxicity (malignant tumour) [13]: 0 | Hepatotoxicity (benign tumour) [14]: 0

Cc1nc(NS(=O)(=O)c2ccc(N)cc2)oc1C [SULFAMOXOLE]
Hepatotoxicity (moderate) [1]: 0% | Hepatotoxicity (acute) [2]: 0% | Hepatotoxicity (moderate) [3]: 0 | Hepatotoxicity (acute) [4]: 1 | Hepatotoxicity (cytolytic) [5]: 0 | Hepatotoxicity (choleostasis) [6]: 0 | Hepatotoxicity (severe hepatitis) [7]: 0 | Hepatotoxicity (chronic liver disease) [8]: 0 | Hepatotoxicity (cirrhosis) [9]: 0 | Hepatotoxicity (granulomatous hepatitis) [10]: 0 | Hepatotoxicity (association with vascular disease) [11]: 0 | Hepatotoxicity (steatosis) [12]: 0 | Hepatotoxicity (malignant tumour) [13]: 0 | Hepatotoxicity (benign tumour) [14]: 0

CC(C)CCOc1ccc(NC(=S)Nc2ccc(OCCC(C)C)cc2)cc1 [TIOCARLIDE]
Hepatotoxicity (moderate) [1]: 4.5% | Hepatotoxicity (acute) [2]: 0.4% | Hepatotoxicity (moderate) [3]: 1 | Hepatotoxicity (acute) [4]: 2 | Hepatotoxicity (cytolytic) [5]: 2 | Hepatotoxicity (choleostasis) [6]: 0 | Hepatotoxicity (severe hepatitis) [7]: 0 | Hepatotoxicity (chronic liver disease) [8]: 0 | Hepatotoxicity (cirrhosis) [9]: 0 | Hepatotoxicity (granulomatous hepatitis) [10]: 0 | Hepatotoxicity (association with vascular disease) [11]: 0 | Hepatotoxicity (steatosis) [12]: 0 | Hepatotoxicity (malignant tumour) [13]: 0 | Hepatotoxicity (benign tumour) [14]: 0

CCC(=O)NS(=O)(=O)c1ccc(-c2c(-c3ccccc3)noc2C)cc1 [PARECOXIB]
Hepatotoxicity (moderate) [1]: 6.5% | Hepatotoxicity (acute) [2]: 0% | Hepatotoxicity (moderate) [3]: 1 | Hepatotoxicity (acute) [4]: 0 | Hepatotoxicity (cytolytic) [5]: 0 | Hepatotoxicity (choleostasis) [6]: 0 | Hepatotoxicity (severe hepatitis) [7]: 0 | Hepatotoxicity (chronic liver disease) [8]: 0 | Hepatotoxicity (cirrhosis) [9]: 0 | Hepatotoxicity (granulomatous hepatitis) [10]: 0 | Hepatotoxicity (association with vascular disease) [11]: 0 | Hepatotoxicity (steatosis) [12]: 0 | Hepatotoxicity (malignant tumour) [13]: 0 | Hepatotoxicity (benign tumour) [14]: 0

Clc1ccc(C(Cn2ccnc2)OCc2ccsc2Cl)c(Cl)c1 (stereo not drawn) [TIOCONAZOLE]
Hepatotoxicity (moderate) ([1]; Liver): 5.3% | Hepatotoxicity (acute) ([2]; Liver): 0% | Hepatotoxicity (moderate) [3]: 1 | Hepatotoxicity (acute) [4]: 0 | Hepatotoxicity (cytolytic) ([5]; Liver): 0 | Hepatotoxicity (choleostasis) ([6]; Liver): 0 | Hepatotoxicity (severe hepatitis) ([7]; Liver): 0 | Hepatotoxicity (chronic liver disease) [8]: 0 | Hepatotoxicity (cirrhosis) [9]: 0 | Hepatotoxicity (granulomatous hepatitis) ([10]; Liver): 0 | Hepatotoxicity (association with vascular disease) [11]: 0 | Hepatotoxicity (steatosis) [12]: 0 | Hepatotoxicity (malignant tumour) [13]: 0 | Hepatotoxicity (benign tumour) [14]: 0

OCc1cc(C(O)CNCCCCCCOCCCCc2ccccc2)ccc1O (stereo not drawn) [SALMETEROL]
Hepatotoxicity (moderate) [1]: 1.8% | Hepatotoxicity (acute) [2]: 0% | Hepatotoxicity (moderate) [3]: 1 | Hepatotoxicity (acute) [4]: 0 | Hepatotoxicity (cytolytic) [5]: 0 | Hepatotoxicity (choleostasis) [6]: 0 | Hepatotoxicity (severe hepatitis) [7]: 0 | Hepatotoxicity (chronic liver disease) [8]: 0 | Hepatotoxicity (cirrhosis) [9]: 0 | Hepatotoxicity (granulomatous hepatitis) [10]: 0 | Hepatotoxicity (association with vascular disease) [11]: 0 | Hepatotoxicity (steatosis) [12]: 0 | Hepatotoxicity (malignant tumour) [13]: 0 | Hepatotoxicity (benign tumour) [14]: 0

ETARACIZUMAB
Hepatotoxicity (moderate) [1]: 77.8% | Hepatotoxicity (acute) [2]: 0% | Hepatotoxicity (moderate) [3]: 1 | Hepatotoxicity (acute) [4]: 0 | Hepatotoxicity (cytolytic) [5]: 0 | Hepatotoxicity (choleostasis) [6]: 0 | Hepatotoxicity (severe hepatitis) [7]: 0 | Hepatotoxicity (chronic liver disease) [8]: 0 | Hepatotoxicity (cirrhosis) [9]: 0 | Hepatotoxicity (granulomatous hepatitis) [10]: 0 | Hepatotoxicity (association with vascular disease) [11]: 0 | Hepatotoxicity (steatosis) [12]: 0 | Hepatotoxicity (malignant tumour) [13]: 0 | Hepatotoxicity (benign tumour) [14]: 0
